# In paper PMC11642044 (International Journal of Molecular Sciences, 2024):
# Where two headings read alike, the source gives them in different places. Where a SMILES comes first, the peptide text is derived from it.
# Assays:
# primary astrocytes [1] = test: LIF secretion (ELISA), primary astrocytes; assay type: cell-based, mouse
# Experimental: HEK293, U87-MG, 1321N1, SK-N-SH, and SK-N-MC cells were cultured in MEM supplemented with 10% (vol/vol) fetal bovine serum (FBS), 50 U/mL penicillin, and 50 μg/mL streptomycin. Primary astrocyte cultures were prepared from the cerebral cortexes of neonatal mice (P2). The cerebral hemispheres were isolated and transferred to ice-cold Hank’s buffer, and the meninges were carefully removed. Tissues were then minced into approximately 1 mm pieces, triturated, filtered through a 60 µm nylon screen, and collected by centrifugation at approximately 3000× g for 5 min. The cell pellets were dispersed with a pipette and resuspended in a medium containing 10% (vol/vol) FBS in low-glucose Dulbecco’s modified Eagle’s medium. After trituration, the cells were filtered through a 10 µm screen and then plated into 6-well plates at a density of 3 × 10^5 cells/mL and cultured for about 10 days. The medium was replaced twice per week. Dibutyryl cyclic adenosine monophosphate (DBcAMP; 0.15 mM, Sigma, St Louis, MO, USA) was added to induce differentiation when the cells were grown to 95% confluence. […]
# Conditioned media were analyzed for the presence of multiple cytokines by using the cytokine multiplex assay kits (Merck Millipore, MA, USA) as previously described. […] The detection beads were then washed again and resuspended in 120 μL of reading buffer. […]
# U87-MG cells [2] = test: Intracellular Ca2+ mobilization by Gq-coupled receptor agonists (FLIPR, Fluo-4), U87-MG; assay type: cell-based, human
# Experimental: (§1) Cells were seeded in 96-well plates (clear bottom and black wall) at 2.5 × 10^4 cells per well on the day before assay. The cells (~80–100% confluence) were then washed with Hank’s balanced salt solution (HBSS) and aspirated, followed by addition of 100 μL of FLIPR labeling dye (containing Fluo-4 and probenecid in HBSS) to each well before incubation at 37 °C for 1 h. Finally, the 96-well plate containing the labeled cells was transferred to the FLIPR (Molecular Devices, San Jose, CA, USA), and 50 μL of HBSS (with or without agonists) was added to each well. The fluorescent signals that reflect the intracellular Ca^2+ transients were monitored by an excitation wavelength of 488 nm, and detection was undertaken with an emission wavelength from 510 to 570 nm for 3 min upon the drug treatments, as described previously.
# 1321-N1 cells = test: Intracellular Ca2+ mobilization by Gq-coupled receptor agonists (FLIPR, Fluo-4), 1321-N1; assay type: cell-based, human
# Experimental: as §1
# primary astrocytes [3] = test: Intracellular Ca2+ mobilization by Gq-coupled receptor agonists (FLIPR, Fluo-4), primary cortical astrocytes; assay type: cell-based, mouse; settings: 10 μM agonist, n = 4
# Experimental: HEK293, U87-MG, 1321N1, SK-N-SH, and SK-N-MC cells were cultured in MEM supplemented with 10% (vol/vol) fetal bovine serum (FBS), 50 U/mL penicillin, and 50 μg/mL streptomycin. Primary astrocyte cultures were prepared from the cerebral cortexes of neonatal mice (P2). The cerebral hemispheres were isolated and transferred to ice-cold Hank’s buffer, and the meninges were carefully removed. Tissues were then minced into approximately 1 mm pieces, triturated, filtered through a 60 µm nylon screen, and collected by centrifugation at approximately 3000× g for 5 min. The cell pellets were dispersed with a pipette and resuspended in a medium containing 10% (vol/vol) FBS in low-glucose Dulbecco’s modified Eagle’s medium. After trituration, the cells were filtered through a 10 µm screen and then plated into 6-well plates at a density of 3 × 10^5 cells/mL and cultured for about 10 days. The medium was replaced twice per week. Dibutyryl cyclic adenosine monophosphate (DBcAMP; 0.15 mM, Sigma, St Louis, MO, USA) was added to induce differentiation when the cells were grown to 95% confluence. Primary mouse cortical neuronal cultures were obtained from E16 ICR mouse embryos. Briefly, cerebral cortices were removed from mouse embryos and mechanically dissociated in PBS with glucose (18 mM). Neurons were then seeded onto poly-L-lysine (1 mg/mL)-coated 96-well plates at 5 × 10^4 cells/well in a B27 Plus Neuronal culture system (Thermo Fisher Scientific), supplemented with 2 mM glutamine, 5 μM mercaptoethanol, 100 U/mL penicillin and 100 μg/mL streptomycin. The cultured neurons were maintained in a humidified incubator at 37 °C with 5% CO2 for 7 days prior to use.
# as §1
# U87-MG cells [4] = test: LIF production into conditioned media (ELISA), U87-MG; assay type: cell-based, human
# STAT3 in SK-N-MC cells [5] = test: STAT3 Tyr705 phosphorylation in SK-N-MC by conditioned media from agonist-treated U87-MG; assay type: cell-based, human
# Experimental: (§2) These conditioned media were either immediately applied to SK-N-SH/SK-N-MC cells (80–100% confluence) in 6-well plates for 15 min, or subjected to heat treatment on a 96 °C heat block for 5 min, and then cooled to 37 °C before they were applied to the SK-N-SH/SK-N-MC cells for 15 min. […] For the SK-N-MC-derived conditioned media, SK-N-MC cells (80–100% confluence) in a 10 cm culture dish were serum-starved in 10 mL of MEM (without FBS), with 1 mL of the resulting conditioned medium being collected at indicated time points (15 min, 1 h, 3 h, 6 h). Simultaneously, U87-MG cells (80–100% confluence) in 12-well plates were serum-starved in MEM for 6 h, followed by pretreatment of […] (5 μM, 15 min), and then challenged with the SK-N-MC-derived conditioned media (mentioned above) for 10 min before cell lysis. […]
# (§3) SDS-PAGE and Western blotting were performed as described in our previous studies. […] The amount of protein in each sample was determined by detergent compatible (DC) protein assay according to the supplier’s instruction (Bio-Rad, Hercules, CA, USA). […] Resolved proteins were detected by specific primary antibodies and horseradish peroxidase-conjugated secondary antisera. The level of β-actin was determined as an internal control.
# ERK in SK-N-MC cells = assay type: cell-based, human
# Experimental: as §2, §3
# ERK in SK-N-SH cells = assay type: cell-based, human
# Experimental: as §2, §3
# STAT3 in SK-N-MC cells [6] = test: STAT3 phosphorylation by direct application of cytokine, SK-N-MC; assay type: cell-based, human; settings: LIF 0–100 ng/mL, 15 min
# Experimental: (§4) To determine if the experimental cells were readily responsive to LIF and IL-6, SK-N-MC cells, mouse primary neurons and primary astrocytes (80–100% confluence in 12-well plates) were serum-starved for 6 h, followed by treatment of indicated concentrations (0–100 ng/mL) of LIF and IL-6 for 15 min. The subsequent cell lysates were subjected to SDS-PAGE and Western blot with specific antibodies to detect stimulatory phosphorylated forms and the total amounts of STAT3.
# as §3, with “control. […] Chemiluminescence signals were then detected by ChemiDoc imaging systems (Bio-Rad, Hercules, CA, USA) with the subsequent band densities quantified by ImageJ (https://imagej.net/ij/) analysis software (National Institutes of Health, MD, USA). […]” for “control.”
# [7] = tested on: STAT3 in primary mouse cortical neurons; test: STAT3 phosphorylation by direct application of cytokine, primary cortical neurons; assay type: cell-based; settings: 0–100 ng/mL, 15 min
# Experimental: as §4
# as §3, with “control. […] Chemiluminescence signals were then detected by ChemiDoc imaging systems (Bio-Rad, Hercules, CA, USA) with the subsequent band densities quantified by ImageJ (https://imagej.net/ij/) analysis software (National Institutes of Health, MD, USA). […]” for “control.”
# [8] = tested on: STAT3 in primary mouse astrocytes; test: STAT3 phosphorylation by direct application of cytokine, primary astrocytes; assay type: cell-based; settings: 0–100 ng/mL, 15 min
# Experimental: as §4
# SDS-PAGE and Western blotting were performed as described in our previous studies. In brief, cells in 6-well plates (5 × 10^5 cells/well) were lysed in 500 μL of ice-cold lysis buffer (50 mM Tris-HCl at pH 7.5 containing 100 mM NaCl, 5 mM EDTA, 40 mM NaP2O7, 1% Triton X-100, 1 mM dithiothreitol, 200 μM Na3VO4, 100 μM phenylmethylsulfonyl fluoride, 2 μg/mL leupeptin, 4 μg/mL aprotinin, and 0.7 μg/mL pepstatin) and then gently shaken for 30 min. The amount of protein in each sample was determined by detergent compatible (DC) protein assay according to the supplier’s instruction (Bio-Rad, Hercules, CA, USA). Clarified lysates (30 μg protein per sample) were resolved on 12% SDS-polyacrylamide gels and then transferred to nitrocellulose membranes (Westborough, MA, USA). Resolved proteins were detected by specific primary antibodies and horseradish peroxidase-conjugated secondary antisera. The level of β-actin was determined as an internal control. Immunoblots were visualized by chemiluminescence with the WesternBright ECL reagents from Advansta (San Jose, CA, USA). Chemiluminescence signals were then detected by ChemiDoc imaging systems (Bio-Rad, Hercules, CA, USA) with the subsequent band densities quantified by ImageJ (https://imagej.net/ij/) analysis software (National Institutes of Health, MD, USA). All primary antibodies which specifically recognize B1R, B2R, ERK, p-ERK, p38, p-p38, JNK, p-JNK, STAT3, p-STAT3, and β-actin were applied at 1:1000 dilution for Western blotting.
# STAT3 in U87-MG cells = test: STAT3 phosphorylation by direct application of cytokine, U87-MG; assay type: cell-based, human
compound,measurement,setting,value
N=C(N)NCCC[C@H](NC(=O)[C@H](Cc1ccccc1)NC(=O)[C@@H]1CCCN1C(=O)[C@H](CO)NC(=O)[C@H](Cc1ccccc1)NC(=O)CNC(=O)[C@@H]1CCCN1C(=O)[C@@H]1CCCN1C(=O)[C@@H](N)CCCNC(=N)N)C(=O)O [bradykinin] (H-RPPGFSPFR-OH),EC50,primary astrocytes [1],23 nM
C[N+](C)(C)CCOC(N)=O [carbachol],intracellular Ca2+ response,"U87-MG cells [2]; 10 μM agonist, U87-MG, FLIPR, Fluo-4, 3 min, n = 3",lack of a carbachol-stimulated Ca^2+ response
same,"Ca2+ response, fold stimulation","1321-N1 cells; 10 μM agonist, 1321-N1, FLIPR",over 100 fold
same,intracellular Ca2+ response,"1321-N1 cells; 10 μM agonist, 1321-N1, FLIPR, Fluo-4, 3 min, n = 3",elicited Ca^2+ responses in 1321-N1 cells
same,intracellular Ca2+ mobilization,primary astrocytes [3],significantly stimulated Ca^2+ mobilization
same,LIF production,"U87-MG cells [4]; 10 μM agonist, 24 h, U87-MG, ELISA, n = 3",failed to induce the production of LIF
NCCc1c[nH]cn1 [histamine],"Ca2+ response, fold stimulation",U87-MG cells [2],over 100 fold
same,intracellular Ca2+ response,U87-MG cells [2],significantly stimulated intracellular Ca^2+ responses
same,"Ca2+ response, fold stimulation",1321-N1 cells,over 100 fold
same,intracellular Ca2+ response,1321-N1 cells,significantly stimulated intracellular Ca^2+ responses
same,LIF production,U87-MG cells [4],significantly elevated the levels of LIF
same,STAT3 Tyr705 phosphorylation by conditioned media,STAT3 in SK-N-MC cells [5],stimulated STAT3 Tyr^705 phosphorylation
same,ERK phosphorylation by conditioned media,ERK in SK-N-MC cells,little or no change in ERK phosphorylation
same,ERK phosphorylation by conditioned media,ERK in SK-N-SH cells,little or no change in ERK phosphorylation
leukemia inhibitory factor [LIF],STAT3 phosphorylation,STAT3 in SK-N-MC cells [6],dose-dependent manner
same,STAT3 phosphorylation,[7],dose-dependently stimulated STAT3 phosphorylation
same,STAT3 response compared with IL-6,[7],apparently stronger than that induced by IL-6
same,potency in STAT3 phosphorylation compared with IL-6,[8],even more potent than IL-6
same,STAT3 phosphorylation,[8]; n = 3,readily stimulated by LIF in a dose-dependent manner
same,STAT3 phosphorylation,STAT3 in U87-MG cells,readily stimulated by LIF in a dose-dependent manner
